Assay results: US20250127727A1, “IONIZABLE LIPIDS WITH BIOACTIVE MOTIFS” (GEORGIA TECH RESEARCH CORPORATION, priority 2021, published 2025)

Test system: Ai14 mice
Experiment: Normalized delivery and fold enrichment from DNA barcode sequencing of tdTomato+ cells
Assay type: in vivo
Details: by LNP component; pool of 65 LNPs
Protocol: Following characterization of the pool of 65 Pi-LNPs, the LNPs were injected into Ai14 mice at a total nucleic dose of 1.5 mg/kg (averaging a 0.023 mg total nucleic acid/kg/particle, for all 65 Pi-LNPs) (FIG. 2A). The Ai14 mice have a Lox-Stop-Lox-tdTomato construct downstream of a CAG promoter. Thus, if Cre mRNA is delivered into a target cell and is subsequently functionally translated into Cre protein, the cells become tdTomato+ (FIG. 2A). By isolating tdTomato+ cells using fluorescence-activated cell sorting (FACS, FIG. 4, FIG. 5) and sequencing the cells using next-generation sequencing, it was possible to isolate the DNA barcodes, associated with specific LNPs, within cells that were functionally transfected with Cre mRNA 26, 36-38 Three days after injection, liver, spleen, lung, and kidney were isolated and quantified the percentage of tdTomato+ cells from 14 different cell populations (FIG. 2B). […] The percentage of tdTomato+ quantified in liver endothelial cells and dendritic cells was <5%, and no delivery in lung and kidney was observed. […] From the barcode raw counts obtained through sequencing, the normalized delivery of each individual barcode was calculated. Briefly, the normalized delivery of a given barcode was calculated as the number of counts for that barcode divided by the counts for all N barcodes (Tables 1-3, below). […]

## CC(C)CCC[C@@H](C)[C@H]1CC[C@H]2[C@@H]3CC=C4C[C@@H](O)CC[C@]4(C)[C@H]3CC[C@]12C [cholesterol]
  fold enrichment (odds of being in top or bottom 10% of LNPs): outperformed 20α-OH cholesterol
